Earlier results on one molecule are cited in patent publication US6720307B2, “Glycosylated analogs of fusidic acid” (The University of Michigan, priority 1996, dated 2004).

Structures are written as SMILES.

For one series, the system named is HIV. As to conditions: in vitro.
In the next series the test system is enterobacteria. The following applies: all enterobacteria.
The subject of series [1] is methicillin-resistant staphylococci.

With `CC(=O)O[C@H]1C[C@@]2(C)[C@@H](C[C@@H](O)[C@H]3[C@@]4(C)CC[C@@H](O)[C@@H](C)[C@@H]4CC[C@@]32C)/C1=C(\CCC=C(C)C)C(=O)O` [fusidic acid, 3α,11α,16β-Trihydroxy-29-nor-8α,9β,13α,14β-dammara-17(20),24-dien-21-oic acid 16-acetate], the efficacy result with streptococci, with mycobacteria and in the series on Nocardia spp. was “moderate efficacy” throughout. In the series with HIV, the “effectiveness against HIV” value is recorded as “in vitro effectiveness”. Also, the “susceptibility to fusidic acid” value is “highly susceptible” in the series with Staphylococcus aureus; “highly susceptible” with corynebacteria; “susceptible” in the series on Bacteroides spp.; “susceptible” in the series on Neisseria; “resistant” in the series with enterobacteria; “usually susceptible” in [1]. Moreover, the “susceptibility to fusidic acid” value is on record as “highly susceptible” in the series with S. epidermidis; “resistant” with Psuedomonas spp.; “resistant” in the series with Gram-negative bacilli; “resistant” with fungi; “highly susceptible” in the series with Clostridium spp..
